Results published in PubChem BioAssay (NCI).
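Cultured in 96-well plates, cells were exposed to test compound for 48 hours across five concentrations. GI50 marks 50% less growth. TGI denotes the concentration required for complete inhibition of growth.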

What was measured:
Test in all cases: growth of human tumour cells (NCI), 48 h
[1] = test system: ACHN renal
[2] = test system: UO-31 renal
[3] = test system: SK-MEL-5 melanoma
[4] = test system: A498 renal
[5] = test system: HL-60(TB) leukemia
[6] = test system: LOX IMVI melanoma
[7] = test system: PC-3 prostate
[8] = test system: MDA-MB-435
[9] = test system: NCI-H460 lung
[10] = test system: HCC-2998 colon

| SMILES | TGI [1] | TGI [2] | TGI [3] | TGI [4] | TGI [5] | TGI [6] | TGI [7] | TGI [8] | TGI [9] | TGI [10] | GI50 [1] | GI50 [2] | GI50 [3] | GI50 [4] | GI50 [5] | GI50 [6] | GI50 [7] | GI50 [8] | GI50 [9] | GI50 [10] |
| --- | --- | --- | --- | --- | --- | --- | --- | --- | --- | --- | --- | --- | --- | --- | --- | --- | --- | --- | --- | --- |
| CC1C(c2ccc3c(c2)OCO3)c2cc3c(cc2OC1N1CCOCC1)OCO3 (stereo not given) | > 100 µM | 85 µM | 42.7 µM | 65.6 µM | > 62.2 µM | 60.2 µM | > 100 µM | 27.6 µM | > 80.1 µM | 65.6 µM |  |  |  |  |  |  |  |  |  |  |
| COC(=O)C1=C(C)NC(C)=C([N+](=O)[O-])C1c1cccc(N=O)c1 (stereo not given) | 24.8 µM | 24.8 µM | 29.6 µM | 58.4 µM | > 100 µM | 30 µM | 32.9 µM | 25.4 µM | 31.1 µM | 34.8 µM |  |  |  |  |  |  |  |  |  |  |
| COc1ccc(-c2csc(NC(=O)CSc3nc(C)c(-c4ccccc4)n3Nc3ccccc3)n2)cc1 | > 100 µM | > 100 µM | > 100 µM | > 100 µM | > 100 µM | > 100 µM | > 100 µM | > 100 µM | > 100 µM | > 100 µM | > 100 µM | 1.89 µM | 4.45 µM | 31.2 µM | 6.29 µM | 5.85 µM | 5.16 µM | 5.77 µM | 7.41 µM | > 100 µM |
| Cc1cn2c(C)csc2c1P(=O)(OC(C)C)OC(C)C | > 100 µM | > 100 µM | > 100 µM | > 100 µM | > 100 µM | > 100 µM | > 100 µM | > 100 µM | > 100 µM | > 100 µM |  |  |  |  |  |  |  |  |  |  |
| CC12CC1C(c1cccc([N+](=O)[O-])c1)(c1cccc([N+](=O)[O-])c1)N=N2 (stereo not given) | 29.4 µM | 23.8 µM | > 100 µM | > 100 µM | 45.8 µM | 27.8 µM | 88.8 µM | > 100 µM | > 100 µM | > 100 µM |  |  |  |  |  |  |  |  |  |  |
| C=C(C)[C@@]1(O[Si](C)(C)C)CCCC[C@@H]1CC(Sc1ccccc1)Sc1ccccc1 | 28.8 µM | 27.3 µM | 34.8 µM | 34.5 µM | 40.8 µM | 37.2 µM | 27.4 µM | 31.6 µM | 29.6 µM | 29.8 µM |  |  |  |  |  |  |  |  |  |  |
| C=C1C(=O)OC2/C=C(/C)C3(O)OC(C)(CC(OC(=O)C(C)C)C12)CC3OC(C)=O (stereo not given) | 8.67 µM | 22.2 µM | 23.8 µM | 15.5 µM | > 19.7 µM | > 68.8 µM | 62.9 µM | > 43.8 µM | 25 µM | 16.5 µM |  |  |  |  |  |  |  |  |  |  |
| O=C(O)c1ccc2c(c1)CC1(C2)Cc2cc3c(cc2C1=O)CCC3 (stereo not given) | > 100 µM | > 100 µM | > 100 µM | > 100 µM | > 100 µM | > 100 µM | > 100 µM | > 100 µM | > 100 µM | > 100 µM |  |  |  |  |  |  |  |  |  |  |
| COC(=O)C1(Cc2ccc3c(c2)CCC3)Cc2ccccc2C1=O (stereo not given) | > 100 µM | 84.4 µM | 18.1 µM | 57.9 µM | 32.4 µM | 28.5 µM | > 100 µM | 18 µM | 93.6 µM | > 100 µM |  |  |  |  |  |  |  |  |  |  |
| Cc1ccc(S(=O)(=O)NC(=O)NNc2ccc(F)cc2)cc1 | > 100 µM | > 31.6 µM | > 100 µM | > 100 µM | > 100 µM | > 100 µM | > 100 µM | > 100 µM | > 100 µM | > 100 µM |  |  |  |  |  |  |  |  |  |  |
| COC(=O)C1(Cc2ccc3c(c2)CCC3)Cc2cc3c(cc2C1)CCC3 | > 100 µM | > 100 µM | > 100 µM | > 100 µM | 77.8 µM | 42.3 µM | > 100 µM | > 100 µM | > 100 µM | 57.5 µM |  |  |  |  |  |  |  |  |  |  |
| COc1ccc(N=C2C(=S)N(c3ccc(OC)cc3)/C(=N/S(=O)(=O)c3ccccc3)N2c2ccccc2)cc1 | 21.7 µM | 13.4 µM | 11.1 µM | > 100 µM | > 100 µM | 16.9 µM | 11.1 µM | 20.6 µM | > 73.2 µM | > 57.9 µM |  |  |  |  |  |  |  |  |  |  |
| CCCCC/C(C=O)=C\c1ccccc1 | > 100 µM | > 100 µM | > 100 µM | > 100 µM | > 100 µM | > 100 µM | > 100 µM | > 100 µM | > 100 µM | > 100 µM |  |  |  |  |  |  |  |  |  |  |
| Cn1ccnc1Sc1ccc(C=Nc2ccc3nc(SCC(=O)NC4CCCCC4)sc3c2)cc1[N+](=O)[O-] | > 100 µM | > 100 µM | > 100 µM | 48.2 µM | > 100 µM | > 100 µM | > 100 µM | > 100 µM | > 100 µM | > 100 µM |  |  |  |  |  |  |  |  |  |  |
| Cc1cn([C@H]2C[C@](C)(CO)N(C)O2)c(=O)[nH]c1=O | > 100 µM | > 100 µM | > 100 µM | > 100 µM | > 100 µM | > 100 µM | > 100 µM | > 100 µM | > 100 µM | > 100 µM |  |  |  |  |  |  |  |  |  |  |
| CCCOC(=O)NC(C)C(=O)NC(CCC(=O)NC(CCCC(N)C(=O)O)C(=O)NC(C)C(=O)O)C(=O)O (stereo not given) | > 100 µM | > 100 µM | 30.5 µM | > 100 µM | 42.1 µM | 30.1 µM | 53.7 µM | > 100 µM | > 100 µM | 34.8 µM |  |  |  |  |  |  |  |  |  |  |
| N#CC(=N)c1ncn(-c2ccccc2N)c1N | > 100 µM | > 100 µM | > 100 µM | > 100 µM | > 100 µM | > 100 µM | > 100 µM | > 100 µM | > 100 µM | > 100 µM |  |  |  |  |  |  |  |  |  |  |
| Clc1ccc(Cl)c(SCCCN2CCNCC2)c1 | 31.1 µM | 30.1 µM | 33.1 µM | 28.2 µM | 40.3 µM | 35.8 µM | 29.7 µM | 41.4 µM | 42.1 µM | 12.8 µM |  |  |  |  |  |  |  |  |  |  |
